In the assay the target is Arf-GAP with GTPase, ANK repeat and PH domain-containing protein 2 (Homo sapiens) (UniProt Q99490). Description: CENTG1 binders by thermal stabilization, biophysical, DSF, SYPRO orange, recombinant protein (AID 511). The settings on record: at 50000 µM, protein 4.5 µM, buffer 100 mM HEPES, pH 7.5, NaCl 150 mM, active compounds read high.
Arf-GAP with GTPase, ANK repeat and PH domain-containing protein 2 (Homo sapiens), sequence (Q99490 whole entry, looked up, the tested form may be a part): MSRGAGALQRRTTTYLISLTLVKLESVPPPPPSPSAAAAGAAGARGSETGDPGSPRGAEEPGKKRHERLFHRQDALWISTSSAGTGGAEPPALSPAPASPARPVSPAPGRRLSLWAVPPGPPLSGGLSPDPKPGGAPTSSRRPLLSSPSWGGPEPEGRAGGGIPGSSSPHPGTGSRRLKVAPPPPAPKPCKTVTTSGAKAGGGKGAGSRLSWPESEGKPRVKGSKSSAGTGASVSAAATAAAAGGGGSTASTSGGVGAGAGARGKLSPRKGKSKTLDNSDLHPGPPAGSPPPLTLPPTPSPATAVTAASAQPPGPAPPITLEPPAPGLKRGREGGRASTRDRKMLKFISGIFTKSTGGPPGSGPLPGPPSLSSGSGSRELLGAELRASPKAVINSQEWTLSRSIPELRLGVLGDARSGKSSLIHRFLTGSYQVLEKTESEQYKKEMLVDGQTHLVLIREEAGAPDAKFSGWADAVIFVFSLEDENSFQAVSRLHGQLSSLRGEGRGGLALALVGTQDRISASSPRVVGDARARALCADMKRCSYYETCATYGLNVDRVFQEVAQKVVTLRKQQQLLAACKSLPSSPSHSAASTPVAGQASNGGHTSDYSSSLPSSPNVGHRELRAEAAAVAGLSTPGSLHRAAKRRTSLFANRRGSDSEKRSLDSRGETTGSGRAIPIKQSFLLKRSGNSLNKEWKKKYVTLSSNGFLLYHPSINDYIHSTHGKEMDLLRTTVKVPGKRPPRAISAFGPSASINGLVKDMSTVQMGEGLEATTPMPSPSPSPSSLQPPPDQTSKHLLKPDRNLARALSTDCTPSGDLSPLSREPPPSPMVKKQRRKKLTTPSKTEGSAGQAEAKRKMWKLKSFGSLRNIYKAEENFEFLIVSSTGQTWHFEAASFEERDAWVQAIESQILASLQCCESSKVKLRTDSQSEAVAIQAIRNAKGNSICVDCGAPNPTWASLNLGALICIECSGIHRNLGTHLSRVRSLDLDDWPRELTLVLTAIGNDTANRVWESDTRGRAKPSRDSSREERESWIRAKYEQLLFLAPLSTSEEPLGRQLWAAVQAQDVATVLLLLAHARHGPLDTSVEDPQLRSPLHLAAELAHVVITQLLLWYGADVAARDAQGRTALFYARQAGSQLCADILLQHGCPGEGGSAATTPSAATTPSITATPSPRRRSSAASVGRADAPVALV

For the compound `NC(CS)C(=O)O` (stereo unspecified), the Tm shift is 3.9 Celsius.

Source of the values: PubChem BioAssay AID511.
